# Experimental data from patent publication US12215106B2, “Pharmaceutical compounds and therapeutic methods” (RUTGERS, THE STATE UNIVERSITY OF NEW JERSEY, priority 2018, dated 2025).
# Tests used:
# [1] = system: P-gp; assay: Bi-directional Caco-2 transport assay; assay type: in vitro ADME; details: human, Caco-2; efflux ratio >2: potential P-gp substrate; read-out: Efflux Ratio (B-A/A-B)
# Procedure: (§1) The objective of the study is to evaluate test compounds as substrates for efflux transporter using Caco-2 cell line. To assess the functionality of P-glycoprotein (P-gp), loperamide was run as a positive control (Apical and basolateral HBSS pH 7.4).
# (§2) 5 mM DMSO stock of test compounds and loperamide was diluted 1000-folds in HBSS having 0.1% DMSO to prepare concentrations of 5 μM.
# (§3) Caco-2 cells were grown in DMEM (20% FBS) until 85-90% confluence. After attaining required confluence, cells were trypsinized and seeded into 24 well millcell plates at a density of 0.6×10^5 cells/insert. The plates were maintained for 21 days at 37° C. in CO2 incubator with change of medium every alternative day. Monolayer integrity was monitored by measuring Trans-epithelial electrical resistance (TEER) from day 15.
# (§4) Caco-2 cell monolayer was washed twice with HBSS and incubated for 40 min in CO2 incubator. TEER values were measured and wells showing TEER values above 230 ohms·cm^2 were taken for experiments. The study was performed in loperamide and test compounds by adding 400 μL of loperamide prepared in HBSS in apical (A-B transport) followed by addition of 800 μL of HBSS on basal side and for B-A transport 800 μL of loperamide prepared in HBSS was dosed in basal followed by addition of 400 μL HBSS on apical side. At selected time points (0, 15, 30, 60 and 90 mins) an aliquot of 50 μL was collected from the receiver compartment for determination of test compound concentrations. The volume withdrawn was replaced immediately with HBSS buffer. TEER was measured at the end to the experiment to confirm any damage of monolayer while performing experiment. Those wells with TEER not meeting the criteria were excluded from the study.
# (§5) A 50 μL of test compound samples collected at respective time points and submitted for LC-MS/MS analysis.
# (§6) The apparent permeability (Papp) (A−B & B−A) of test compounds and positive control was calculated using the following formula: Papp=dQ/dt/A·Co where, dQ/dt=linear slope of test compound concentration in receptor chamber with time (0, 15, 30, 60 and 90 min) after correcting for dilution; A=area of the filter (0.7 cm^2); and Co=initial concentration of compound in the donor compartment.
# (§7) Efflux ratio (RE) was calculated using the following equation: RE=PB/A/PA/B where PB/A and PA/B represent the apparent permeability of test compound from the basal to apical and apical to basal side of cell monolayer.
# (§8) Recovery represents: (amount of the compound recovered from donor at end of incubation+cumulative amount of compound in acceptor at end of incubation+amount of the compound in cell lysate or assay well)/amount of compound in donor solution at time zero*100
# (§9) Compounds are classified based on Papp values as follows:
# (§10) A compound having efflux ratio of >2 is considered as having potential as a P-gp substrate.
# [2] = Bi-directional Caco-2 transport assay; assay type: in vitro ADME; details: human, Caco-2, 5 μM
# Procedure: as §1, §2, §3, §4, §5, §6, §7, §8, §9, §10
# [3] = system: mice plasma; assay: in vitro; assay type: in vitro ADME; details: mouse, plasma, 4 h, 5 μM
# Procedure: (§11) The objective of this study was to evaluate protein binding test compounds in mice plasma. This was accomplished by spiking the test compounds at a concentration of 5 μM into mice plasma and dialyzing against buffer until equilibrium is achieved (4 hours). Analyte area ratios of the test compounds in plasma and buffer were determined to calculate unbound and bound percentages of compound to the plasma proteins.
# (§12) Phosphate buffered saline pack (0.1 M sodium phosphate and 0.15 M sodium chloride, pH 7.2) was dissolved in 500 mL of deionized water and pH was adjusted to 7.4 with 0.5 N NaOH.
# (§13) 1 mM stock solutions were prepared in DMSO and diluted 200-folds in mice plasma to prepare a concentration of 5 μM. The final DMSO concentration in plasma was 0.5%.
# (§14) Rapid equilibrium dialysis was performed with a rapid equilibrium dialysis (RED) device containing dialysis membrane with a molecular weight cut-off of 8,000 Daltons. Each dialysis insert contains two chambers. The red chamber is for plasma while the white chamber is for buffer.
# (§15) A 200 μL aliquot of warfarin and test compound at 5 (triplicates) were separately added to the plasma chamber and 350 μL of phosphate buffer saline (pH 7.4) was added to the buffer chamber of the inserts. After sealing the RED device with an adhesive film, dialysis was performed in incubator at 37° C. with shaking at 100 RPM for 4 hours.
# (§16) A 50 μL aliquot of warfarin and test compounds were added to four 0.5 mL microfuse tubes. Two aliquots were frozen immediately (0 minute sample). The other two aliquots were incubated at 37° C. for 4 hours along with the RED device.
# (§17) Following dialysis, an aliquot of 50 μL was removed from each well (both plasma and buffer side) and diluted with equal volume of opposite matrix (dialyzed with the other matrix) to nullify the matrix effect. Similarly, 50 μL of buffer was added to recovery and stability samples. An aliquot of 100 μL was submitted for LCMS/MS analysis.
# (§18) A 25 μL aliquot of warfarin and test compounds were crashed with 100 μL of acetonitrile containing internal standard (glipizide) and vortexed for 5 minutes. The samples were centrifuged at 4000 RPM at 4° C. for 10 min and 100 μL of supernatant was submitted for LC-MS/MS analysis. Samples were monitored for parent compound in MRM mode using LC-MS/MS.
# (§19) The peak area ratios (analyte versus internal standard) obtained were used to determine the fraction of compound bound to plasma proteins.
# [4] = in vitro; assay type: in vitro ADME, mice; details: mouse; for fraction unbound at 4 h, 5 μM: plasma
# Procedure: as §11, §12, §13, §14, §15, §16, §17, §18, §19
SMILES,"efflux ratio at 90 min, 5 μM [1]","Papp A→B at 90 min, 5 μM ([2]; HBSS pH 7.4, apical to basal, read-out: Papp (A-B)) [×10⁻⁶ cm/s]","Papp B→A at 90 min, 5 μM ([2]; HBSS pH 7.4, basal to apical, read-out: Papp (B-A)) [×10⁻⁶ cm/s]",% compound remaining at 4 hrs [3] [%],"recovery at 4 h, 5 µM ([4]; Plasma, pH 7.4) [%]","fraction unbound at 4 h, 5 μM ([4]; pH 7.4, % Bound Mean ± SD)","fraction unbound at 4 h, 5 μM ([4]; pH 7.4, % Bound R1)","fraction unbound at 4 h, 5 μM ([4]; pH 7.4, % Bound R2)","fraction unbound at 4 h, 5 μM ([4]; pH 7.4, % Bound R3)"
"CN(C)C(=O)C(CCN1CCC(O)(c2ccc(Cl)cc2)CC1)(c1ccccc1)c1ccccc1 [Loperamide, reference compound]",5.2,1.6 ± 0.2,8.4 ± 1.2,,,,,,
"CC(=O)CC(c1ccccc1)c1c(O)c2ccccc2oc1=O (stereo not drawn) [Warfarin, reference compound]",,,,94,109,0.069,0.071,0.075,0.062
